According to PubChem BioAssay AID1963842 (Molecular Pharmacology Branch, DTP, NCI, 2024):
pIC50: −log10 of the molar value.

System: 677734-321-R-J1-PDC complex spheroid viability
Assay: Anticancer human tumor 677734-321-R-J1-PDC patient-derived soft tissue sarcoma cell line growth inhibition [POLQ]
Conditions: for pIC50: curve of first compound; for viability, T/C: stronger effect = lower value
Experimental: Multicellular complex tumor spheroid response to Polymerase (POL) inhibitors (novobiocin, ART-558, RP6685) in combination with a variety of drugs and investigational agents in selected tumor cell lines
The POL inhibitors (novobiocin, ART-558, and RP6685) were evaluated both individually and in combination with standard of care and investigational anticancer small molecules within a complex spheroid model of solid tumors. . Complex spheroids include a stromal component modeled by human endothelial cells (HUVEC) and fibroblasts modeled by human mesenchymal stem cells (MSCs). The concentration ranges selected for each drug and investigational agent were based upon clinically achievable concentrations if the clinical Cmax of the agent was known.
Compounds. The drugs and investigational agents: novobiocin (NSC847541), ART-558 (NSC835418), RP-6685 (NSC848927), peposertib (NSC802822), ceralasertib (NSC780249), elimusertib (NSC800525), camonsertib (NSC841442), AZD-1390 (NSC803789), olaparib (NSC753686), talazoparib (NSC767125), rucaparib (NSC756644), sotorasib (NSC818433), MRTX-1133 (NSC836407), SN-38 (NSC673596), topotecan (NSC609699), epotoside (NSC141540), doxorubicin (NSC123127), gemcitabine (NSC613327), 5-fluorouracil (NSC19893), paclitaxel (NSC125973), vemurafenib (NSC761431), MSA-2 (NSC828583), SN-011 (NSC837082), adavosertib (NSC754352), prexasertib (NSC758257), carboplatin (NSC241240) and oxaliplatin (NSC266046), were obtained from the National Cancer Institute (NCI) Developmental Therapeutics Program Chemical Repository (21). The FDA-approved anticancer drug set is available from the Developmental Therapeutics Program at https://dtp.cancer.gov/organization/dscb/obtaining/. […] The stock solutions were prepared in dimethyl sulfoxide (DMSO, Sigma-Aldrich, St. Louis, MO, cat. D2650), except for the platinum compounds which were prepared in saline (Quality Biological, Gaithersburg, MD, cat. 114-055-101), at 800-fold the tested concentration and stored at -70 degrees C prior to their use. All drugs and investigational agents were tested over a range starting from a high concentration at or near the clinical Cmax and decreasing in half-log increments. If the clinical Cmax for an agent had not been determined, the highest concentration tested was 10 microM, except for SN-38, which was tested at a high concentration of 1 microM.
Cell Culture. All cells were maintained in an incubator at 37 degrees C and 5% CO2 with 95% humidity. The PDC lines were cultured according to standard operating procedures established by the NCI PDMR (https://pdmr.cancer.gov). Table 3 of the manuscript, lists the cell lines along with the number of the three cell types plated to form the mct-spheroids and media for tumor cell growth. After thawing, all PDC lines, except 997537-175-T-J1-PDC and 415267-285-R-J2-PDC, were cultured in Matrigel-coated flasks prepared with a working solution of 1X Ham's F-12 nutrient mix, without supplementation (Thermo Fisher Scientific, cat. 11765054), 100 U/mL penicillin-streptomycin (Thermo Fisher Scientific, cat. 15140122), and 2.5% Matrigel (Corning Inc., Corning, NY, cat. 354248) for the first three passages. The two PDC lines 997537-175-T-J1-PDC and 415267-285-R-J2-PDC were cultured on uncoated flasks. The 857933-349-R-J2-PDC line was cultured in 6C/Colon 1B media containing advanced DMEM/F-12 (Thermo Fisher Scientific, cat. 12634028), 10 mM HEPES (Thermo Fisher Scientific, cat. 15630080), 1X GlutaMAX supplement (Thermo Fisher Scientific, cat. 35050061), 0.1 mg/mL primocin (InvivoGen, San Diego, CA, cat. ant-pm-2), 10% defined fetal bovine serum, heat inactivated (HyClone Laboratories Inc., Logan, UT, cat. SH30070.03HI), 50% L-WRN conditioned media (ATCC, cat. CRL-3276), 1.25 mM N-Acetyl-L-cysteine (Sigma-Aldrich, cat. A9165), 10 mM nicotinamide (Sigma-Aldrich, cat. N0636), 1X B-27 supplement (Thermo Fisher Scientific, cat. 17504044), 1X N-2 supplement (Thermo Fisher Scientific, cat. […]

[1] = second compound 0.0316 µM, first compound 0.0316 µM
[2] = second compound 0.0316 µM, first compound 0.1 µM
[3] = second compound 0.0316 µM, first compound 0.316 µM
[4] = second compound 0.0316 µM, first compound 1 µM
[5] = second compound 0.0316 µM, first compound 3.16 µM
[6] = second compound 0.0316 µM, first compound 10 µM
[7] = second compound 0.1 µM, first compound 0.0316 µM
[8] = second compound 0.1 µM, first compound 0.1 µM
[9] = second compound 0.1 µM, first compound 0.316 µM
[10] = second compound 0.1 µM, first compound 1 µM
[11] = second compound 0.1 µM, first compound 3.16 µM
[12] = second compound 0.1 µM, first compound 10 µM
[13] = second compound 0.316 µM, first compound 0.0316 µM
[14] = second compound 0.316 µM, first compound 0.1 µM
[15] = second compound 0.316 µM, first compound 0.316 µM
[16] = second compound 0.316 µM, first compound 1 µM
[17] = second compound 0.316 µM, first compound 3.16 µM
[18] = second compound 0.316 µM, first compound 10 µM
[19] = second compound 1 µM, first compound 0.0316 µM
[20] = second compound 1 µM, first compound 0.1 µM
[21] = second compound 1 µM, first compound 0.316 µM
[22] = second compound 1 µM, first compound 1 µM
[23] = second compound 1 µM, first compound 3.16 µM
[24] = second compound 1 µM, first compound 10 µM
[25] = second compound 3.16 µM, first compound 0.0316 µM
[26] = second compound 3.16 µM, first compound 0.1 µM
[27] = second compound 3.16 µM, first compound 0.316 µM
[28] = second compound 3.16 µM, first compound 1 µM
[29] = second compound 3.16 µM, first compound 3.16 µM
[30] = second compound 3.16 µM, first compound 10 µM
[31] = second compound 10 µM, first compound 0.0316 µM
[32] = second compound 10 µM, first compound 0.1 µM
[33] = second compound 10 µM, first compound 0.316 µM
[34] = second compound 10 µM, first compound 1 µM
[35] = second compound 10 µM, first compound 3.16 µM
[36] = second compound 10 µM, first compound 10 µM
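Note: spheroids exposed to compounds for one week.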
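Throughout, for viability, T/C: 100% = vehicle DMSO treated spheroids.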

Question: What does the source list for `COc1cc(C2c3cc4c(cc3C(OC3OC5COC(C)OC5C(O)C3O)C3COC(=O)C23)OCO4)cc(OC)c1O` (centres undefined) + COC1C(OC(N)=O)C(O)C(Oc2ccc3c(O)c(NC(=O)c4ccc(O)c(CC=C(C)C)c4)c(=O)oc3c2C)OC1(C)C?
Answer: pIC50 (second compound 0.0316 µM): 6.15; pIC50 (second compound 0.1 µM): 6.14; pIC50 (second compound 0.316 µM): 6.03; pIC50 (second compound 1 µM): 6.18; pIC50 (second compound 3.16 µM): 6.07; pIC50 (second compound 10 µM): 6.15; viability, T/C [1]: 107%; viability, T/C [2]: 91.5%; viability, T/C [3]: 59.5%; viability, T/C [4]: 47.8%; viability, T/C [5]: 23.8%; viability, T/C [6]: 11.1%; viability, T/C [7]: 105%; viability, T/C [8]: 94.7%; viability, T/C [9]: 55%; viability, T/C [10]: 47.2%; viability, T/C [11]: 30.2%; viability, T/C [12]: 10.7%; viability, T/C [13]: 100%; viability, T/C [14]: 93.8%; viability, T/C [15]: 70.8%; viability, T/C [16]: 51.3%; viability, T/C [17]: 23.9%; viability, T/C [18]: 12%; viability, T/C [19]: 111%; viability, T/C [20]: 87.2%; viability, T/C [21]: 60.4%; viability, T/C [22]: 45.3%; viability, T/C [23]: 24.3%; viability, T/C [24]: 9.55%; viability, T/C [25]: 111%; viability, T/C [26]: 93.6%; viability, T/C [27]: 62.6%; viability, T/C [28]: 54.9%; viability, T/C [29]: 20.4%; viability, T/C [30]: 9%; viability, T/C [31]: 110%; viability, T/C [32]: 98.2%; viability, T/C [33]: 58.2%; viability, T/C [34]: 47.6%; viability, T/C [35]: 23.7%; viability, T/C [36]: 11%

Question: What does the source list for `COc1cccc2c1C(=O)c1c(O)c3c(c(O)c1C2=O)CC(O)(C(=O)CO)CC3OC1CC(N)C(O)C(C)O1` (centres undefined) + COC1C(OC(N)=O)C(O)C(Oc2ccc3c(O)c(NC(=O)c4ccc(O)c(CC=C(C)C)c4)c(=O)oc3c2C)OC1(C)C?
Answer: pIC50 (second compound 0.0316 µM): 6.98; pIC50 (second compound 0.1 µM): 6.86; pIC50 (second compound 0.316 µM): 6.88; pIC50 (second compound 1 µM): 6.83; pIC50 (second compound 3.16 µM): 6.89; pIC50 (second compound 10 µM): 6.86; viability, T/C [1]: 84.4%; viability, T/C [2]: 51.5%; viability, T/C [3]: 7.79%; viability, T/C [4]: 3.03%; viability, T/C [5]: 2.77%; viability, T/C [6]: 2.45%; viability, T/C [7]: 77.6%; viability, T/C [8]: 66.7%; viability, T/C [9]: 7.11%; viability, T/C [10]: 0.57%; viability, T/C [11]: 1.78%; viability, T/C [12]: 3.77%; viability, T/C [13]: 60.4%; viability, T/C [14]: 67%; viability, T/C [15]: 7.66%; viability, T/C [16]: 0.61%; viability, T/C [17]: 2.67%; viability, T/C [18]: 3.36%; viability, T/C [19]: 83.5%; viability, T/C [20]: 70.1%; viability, T/C [21]: 11.2%; viability, T/C [22]: 0.59%; viability, T/C [23]: 1.98%; viability, T/C [24]: 2.55%; viability, T/C [25]: 74.5%; viability, T/C [26]: 62.4%; viability, T/C [27]: 8.7%; viability, T/C [28]: 0.64%; viability, T/C [29]: 2.76%; viability, T/C [30]: 2.4%; viability, T/C [31]: 68.8%; viability, T/C [32]: 67.1%; viability, T/C [33]: 7.17%; viability, T/C [34]: 0.88%; viability, T/C [35]: 3.28%; viability, T/C [36]: 1.86%
